In ChEMBL document CHEMBL3352676, “Terpenoids from the root bark of Pterolobium macropterum” (J Nat Prod, 2014):
Active and inactive are the calls of the source. The calls are words filed in the database; no cut-off is given here.

Key:
Vero [1] = assay: Cytotoxicity against african green monkey Vero cells assessed as growth inhibition after 72 hrs by sulforhodamine B assay; settings: Chlorocebus sabaeus
[2] = Cytotoxicity against human KKU-M139 cells assessed as growth inhibition after 72 hrs by sulforhodamine B assay; settings: KKU-M139, 72 h
[3] = Cytotoxicity against human KKU-M213 cells assessed as growth inhibition after 72 hrs by sulforhodamine B assay; settings: KKU-M213, 72 h
[4] = Cytotoxicity against human KKU-M156 cells assessed as growth inhibition after 72 hrs by sulforhodamine B assay; settings: KKU-M156, 72 h
Vero [5] = assay: Cytotoxicity against african green monkey Vero cells assessed as growth inhibition at > 200 uM after 72 hrs by sulforhodamine B assay; settings: Chlorocebus sabaeus
KKU-M213 = assay: Cytotoxicity against human KKU-M213 cells assessed as growth inhibition at > 200 uM after 72 hrs by sulforhodamine B assay
KKU-M156 = assay: Cytotoxicity against human KKU-M156 cells assessed as growth inhibition at > 200 uM after 72 hrs by sulforhodamine B assay
KKU-M139 = assay: Cytotoxicity against human KKU-M139 cells assessed as growth inhibition at > 200 uM after 72 hrs by sulforhodamine B assay

| SMILES | IC50 (Vero [1]) [µM] | IC50 [2] [µM] | IC50 [3] [µM] | IC50 [4] [µM] | Activity (Vero [5]) | inhibition (KKU-M213) | inhibition (KKU-M156) | inhibition (KKU-M139) |
| --- | --- | --- | --- | --- | --- | --- | --- | --- |
| COC(=O)C1(C(=O)OC)CCC[C@]2(C)c3cc4occc4c(C)c3CC[C@@H]12 | 65.7 | 80.2 | 44.2 | 83.6 |  |  |  |  |
| COC(=O)[C@]1(C)CCC[C@]2(C)c3cc4occc4c(C)c3CC[C@@H]12 | 57.6 | 70.6 | 144 | 80.1 |  |  |  |  |
| Cc1c2ccncc2c(C)c2c1[nH]c1ccccc12 [ELLIPTECINE] | 15.5 | 18.3 | 6.58 | 37.9 |  |  |  |  |
| C[C@H]1C2=CC(=O)O[C@]2(O)C[C@H]2[C@H]1CC[C@@H]1[C@]2(C)CCC[C@@]1(C)C(=O)O [DIPTERYXIC ACID] | 97.1 | 77.3 | 68.9 | 82.9 |  |  |  |  |
| COC(=O)[C@]1(C)CCC[C@@]2(C)[C@H]1CC[C@H]1C(=O)c3ccoc3C[C@@H]12 |  | 23.2 | 34.8 | 148 | Non-toxic |  |  |  |
| CC(C)[C@]1(O)CC[C@@H](C)[C@@H]2CCC(=O)C=C21 | 154 | 148 |  | 139 |  | inactive |  |  |
| COC(=O)[C@]1(C)CCC[C@@]2(C)[C@H]1CC[C@H]1C(C)=CC(=O)C[C@@H]12 | 50.5 | 197 | 66.8 |  |  |  | inactive |  |
| COC(=O)[C@]1(C)CC[C@@H](OC(C)=O)[C@]2(C)c3cc4occc4c(C)c3C[C@@H](O)[C@H]21 |  | 155 | 98.2 | 115 | Non-toxic |  |  |  |
| CC(C)[C@@H]1CC[C@@H](C)[C@@H]2CCC(C=O)=C[C@@]12O |  |  | 88.8 |  | Non-toxic |  | inactive | inactive |
| COC(=O)[C@]1(C)CCC[C@]2(C)c3cc4occc4c(C)c3C[C@@H](O)[C@@H]12 |  | 122 | 105 | 113 | Non-toxic |  |  |  |
| COC(=O)[C@]1(C)CCC[C@@]2(C)[C@H]1CC[C@H]1[C@@H](C)C3=CC(=O)OC3=C[C@@H]12 | 94.4 |  | 47.6 |  |  |  | inactive | inactive |
| COC(=O)[C@]1(C)CCC[C@@]2(C)[C@H]1CC[C@H]1[C@@H](C)C3=CC(=O)O[C@]3(O)C[C@@H]12 | 59.2 | 76.3 | 44 | 61.2 |  |  |  |  |
| CC(C)[C@@H]1CC[C@@H](C)[C@@H]2CCC(=O)C=C12 | 154 | 70.8 | 87.3 | 88.8 |  |  |  |  |
| CC1=C2CC3CC[C@@H](C)C2(CC1=O)C3(C)C (stereo partly specified) |  |  | 138 |  | Non-toxic |  | inactive | inactive |
